Laboratory results from US4184849A, “Mixed agglutination” (Technicon Instruments Corporation, priority 1977, dated 1980).

Experiments:
Format in all cases: binding
[1] = tested on: sheep anti-digoxin serum; test: assay of digoxin by mixed agglutination of Ab-latex and conjugate-latex, selective optical counting of unagglutinated particles; details: Table 1
Experimental: This Example illustrates the assay of digoxin.
(§1) Latex particles (0.09μ diameter, polystyrene, Dow Chemical Co.) as a 10% by weight suspension as supplied) was diluted 20-fold in dilute glycine-buffered saline (dGBS-20 mM glycine, 34 mM NaCl, pH 9) containing 0.2 mg/ml of the Rivanol-soluble fraction (prepared by the method of Stastny and Horejsi, Clin. Chim. Acta (1961), 6, 782) of sheep anti-digoxin serum, and incubated at room temperature for 30 minutes. 1/10th volume of 10 mg bovine serum albumin (bSA) per ml. dGBS was then added (to ensure that the latex was completely coated with protein), and after a further 30 minutes incubation, the coated latex was washed twice by centrifugation and resuspended in dGBS. Finally, the coated latex was resuspended as a 0.5% suspension in GBS (0.1 M glycine, 0.17 M NaCl, pH 9) containing 1 mg bSA/ml.
(§2) The same procedure was followed as in (a) except that the latex used was of 1.1μ diameter and incubation was performed at an Ag-conjugate concentration of 4μg/ml, followed by the addition of 1/10 volume of 10 mg/ml transferrin. The Ag-conjugate was prepared by the oxidative coupling of digoxin and ethylene glycol followed by reductive coupling of this complex to the protein. 50 mg digoxin dissolved in 2 ml absolute alcohol was incubated for 25 minutes with 2 ml 0.1 M NalO4, then 60 μl of ethylene glycol was added for a further 5 minutes incubation. This reaction mixture was then added to a solution of 60 mg human transferrin in 2 ml water, brought to pH 9.5 by addition of 5% Na2 CO3, and incubated for 45 minutes. 30 mg NaBH4 freshly dissolved in 2 ml water was added and incubation was continued for 3 hours. At the end of this time, the pH of the reaction mixture was reduced to 6.5 by addition of 1 M HCOOH to destroy any unreacted NaBH4, and after a further hour of incubation, 1 M NH4 OH was added to raise the pH to 8.5, and the preparation was dialysed against running water for 2 days at 4° C. (all other operations were at room temperature).
(§3) Sera used for the assay of digoxin were first heated with acid to reduce serum intereference. 25 μl of serum was heated to 56° C. for 10 minutes with 25 μl of 0.1 N HCl, then made alkaline by the addition of 10 μl 2 M Na2 CO3. To these heated sera were added 25 μl of Ab-latex (diluted 1:10 with GBS containing 1 mg bSA/ml) and 25 μl of conjugate-latex (diluted 1:4 with GBS containing 1 mg human transferrin/ml). They were then incubated in vertically-positioned tubes agitated horizontally on a shaking incubator for 15 minutes at room temperature. At the end of this time, the tube contents were diluted with 5 ml GBS and after a further 20-fold dilution with GBS containing 0.01% Tween 20, passed through the flowcell of a Technicon Autocounter at 2 ml/min. The relative numbers of unagglutinated (monomer) latex particles in each sample were determined (as also may be the relative numbers of agglutinated particles) by selective optical counting.
In the selective optical counting of particles, the amount of light scattered by a particle is dependent on the size of the particle; in turn, the electronic impulse generated in the photocell will be proportional to the size of the particle, and particles of different sizes may be counted separately. Table 2 illustrates the improvement in precision of determination (by providing a more extended range for the standard curve) that may be obtained by counting only unagglutinated particles (monomers) as opposed to counting all particles (total). […]

[2] = tested on: sheep anti-digoxin serum; test: latex immunoassay of digoxin read by turbidimetry (optical density at 400 nm)
[3] = tested on: sheep anti-digoxin serum; test: Example 3: digoxin mixed agglutination with equal-sized or different-sized latex
Experimental: as §1, §2, §3
Example 1 was repeated using latex particles of the same (as opposed to different) size and the following results were obtained: […]

[4] = tested on: sheep anti-digoxin serum; test: assay of digoxin by mixed agglutination of Ab-latex and conjugate-latex, selective optical counting of unagglutinated particles; details: Table 3
[5] = tested on: rabbit anti-thyroxine (T4) serum; test: assay of thyroxine by mixed agglutination; details: maximum = Ag-latex alone
Experimental: This Example illustrates the assay of thyroxine. […] After incubation at 0° for 1 hour, 250 μl of 25% ethanolamine in PBS was added, and the incubation prolonged for 30 minutes. The latex was then washed twice by centrifugation and resuspension in fresh PBS (1 ml each time), and then dialysed for 16 hours at 4° against 1 l PBS. […] The method of this latex preparation was exactly the same as for the assay of digoxin (Example 1) except that the Ab was from rabbit anti-thyroxine (T4) serum. […] The maximum value in this case was for the Ag-latex alone, all the above values being found in the presence of Ag-latex as well.

[6] = latex immunoassay of hPL, comparison of counting methods; details: 2.5 ngs hPL/ml
From the text: In the selective optical counting of particles, the amount of light scattered by a particle is dependent on the size of the particle; in turn, the electronic impulse generated in the photocell will be proportional to the size of the particle, and particles of different sizes may be counted separately. Table 2 illustrates the improvement in precision of determination (by providing a more extended range for the standard curve) that may be obtained by counting only unagglutinated particles (monomers) as opposed to counting all particles (total). The Table also illustrates the great increase in sensitivity that may be realized by calculating the ratio of unagglutinated to agglutinated particles (monomer/polymer ratio). By counting particles at all, an increase in sensitivity and precision may be realized by comparison with other methods of end-point determination.

## C[C@H]1O[C@@H](O[C@H]2[C@@H](O)C[C@H](O[C@H]3[C@@H](O)C[C@H](O[C@H]4CC[C@@]5(C)[C@H](CC[C@@H]6[C@@H]5C[C@@H](O)[C@]5(C)[C@@H](C7=CC(=O)OC7)CC[C@]65O)C4)O[C@@H]3C)O[C@@H]2C)C[C@H](O)[C@@H]1O [Digoxin, digoxin]
[1]; digoxin 0.31 ng/ml in serum
  Unagglutinated Particles (as % of maximum): 40%
[1]; digoxin 0.625 ng/ml in serum
  Unagglutinated Particles (as % of maximum): 44%
[1]; digoxin 1.25 ng/ml in serum
  Unagglutinated Particles (as % of maximum): 63%
[1]; digoxin 2.5 ng/ml in serum
  Unagglutinated Particles (as % of maximum): 90%
[1]; digoxin 5.0 ng/ml in serum
  Unagglutinated Particles (as % of maximum): 100%
[2]; digoxin 0.31 ng/ml in serum
  Turbidity: 74 percentage of that found in th
[2]; digoxin 0.625 ng/ml in serum
  Turbidity: 71 percentage of that found in th
[2]; digoxin 1.25 ng/ml in serum
  Turbidity: 82 percentage of that found in th
[2]; digoxin 2.5 ng/ml in serum
  Turbidity: 100 percentage of that found in th
[2]; digoxin 5.0 ng/ml in serum
  Turbidity: 100 percentage of that found in th
[3]; Different-sized latex, digoxin 1 ng/ml in serum
  Unagglutinated Particles (as % of maximum): 30%
[3]; Different-sized latex, digoxin 4 ng/ml in serum
  Unagglutinated Particles (as % of maximum): 76%
[3]; Different-sized latex, digoxin 10 ng/ml in serum
  Unagglutinated Particles (as % of maximum): 100%
[3]; Equal-sized latex, digoxin 1 ng/ml in serum
  Unagglutinated Particles (as % of maximum): 78%
[3]; Equal-sized latex, digoxin 4 ng/ml in serum
  Unagglutinated Particles (as % of maximum): 95%
[3]; Equal-sized latex, digoxin 10 ng/ml in serum
  Unagglutinated Particles (as % of maximum): 100%
[4]; digoxin 0.31 ng/ml in serum
  Particle count (monomers): 40 percentage of that found in th
[4]; digoxin 0.625 ng/ml in serum
  Particle count (monomers): 44 percentage of that found in th
[4]; digoxin 1.25 ng/ml in serum
  Particle count (monomers): 63 percentage of that found in th
[4]; digoxin 2.5 ng/ml in serum
  Particle count (monomers): 90 percentage of that found in th
[4]; digoxin 5.0 ng/ml in serum
  Particle count (monomers): 100 percentage of that found in th

## N[C@@H](Cc1cc(I)c(Oc2cc(I)c(O)c(I)c2)c(I)c1)C(=O)O [T4, thyroxine]
[5]; 10 ng T4/ml serum
  Particle concentration (% maximum): 51.5%
[5]; 50 ng T4/ml serum
  Particle concentration (% maximum): 59.5%
[5]; 200 ng T4/ml serum
  Particle concentration (% maximum): 89%

B1: hPL: human placental lactogen (protein, UniProt P0DML2 27-217, looked up)
Chorionic somatomammotropin …: VQTVPLSRLFDHAMLQAHRAHQLAIDTYQEFEETYIPKDQKYSFLHDSQTSFCFSDSIPTPSNMEETQQKSNLELLRISLLLIESWLEPVRFLRSMFANNLVYDTSDSDDYHLLKDLEEGIQTLMGRLEDGSRRTGQILKQTYSKFDTNSHNHDALLKNYGLLYCFRKDMDKVETFLRMVQCRSVEGSCGF
[6]
  Monomer/polymer ratio: 81 percentage of that obtained in
